Test systems include NCI-H522; CAKI-1; 786-0; OVCAR-3; CCRF-CEM; IGROV-1; UACC-62; NCI-H460; MOLT-4; OVCAR-8; SF-539; COLO 205; HCT-116; Hs-578T; RPMI-8226; HCC 2998; HCT-15; SNB-19; HT-29; BT-549.
Common to all, as to assay: inhibition of tumour cell growth, NCI panel, 48 h

Molecules are shown by their SMILES.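 Each compound was tested at five concentrations against cells in 96-well plates for 48 hours. GI50: concentration for 50% inhibition of growth.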 The source made the active and inactive calls. Cut-off read from the data, not from the text of the source: active = GI50 up to about 1.1 µM and inactive = higher.

For `CC(C)(C)N(Cc1ccccc1)C(=O)/C=C\[S+]([O-])c1ccccc1` (stereo not given), the GI50 is 1.19 µM (inactive) with NCI-H522; 5.85 µM (inactive) in the experiment with CAKI-1; 1.83 µM (inactive) in the experiment with 786-0; 2.48 µM (inactive) in the experiment on OVCAR-3; 1.35 µM (inactive) in the experiment with CCRF-CEM; 4.79 µM (inactive) in the experiment on IGROV-1. The GI50 was 4.39 µM (inactive) in the experiment with UACC-62; 4.1 µM (inactive) in the experiment on NCI-H460; 2.03 µM (inactive) in the experiment with MOLT-4; 1.84 µM (inactive) in the experiment with OVCAR-8; 3.94 µM (inactive) in the experiment on SF-539; 4.72 µM (inactive) with COLO 205. The GI50 in the experiment on HCT-116 was 2.43 µM (inactive); in the experiment on Hs-578T, 2.07 µM (inactive); in the experiment on RPMI-8226, 1.84 µM (inactive); in the experiment on HCC 2998, 6.28 µM (inactive); in the experiment with HCT-15, 3.75 µM; in the experiment with SNB-19, 9.77 µM (inactive). The GI50 in the experiment on HT-29 was 4.11 µM (inactive); with BT-549 it was 2.94 µM (inactive).
